Measurements taken from ChEMBL document CHEMBL1201861, “Genomics of Drug Sensitity in Cancer screening data, Wellcome Trust Sanger Institute”.

Tests used:
Experiment in all cases: cells
D-247MG = assay type: functional, cell-based; conditions: Homo sapiens
Description: SANGER: Inhibition of human D-247MG cell growth in a cell viability assay.

ES5 = assay type: functional, cell-based, Homo sapiens; conditions: Homo sapiens, ES5
Description: SANGER: Inhibition of human ES5 cell growth in a cell viability assay.

EW-18 = assay type: functional, cell-based, Homo sapiens; conditions: Homo sapiens, EW-18; read-out: IC50
Description: SANGER: Inhibition of human EW-18 cell growth in a cell viability assay.

GAK = assay type: functional, cell-based, Homo sapiens; conditions: Homo sapiens, GAK
Description: SANGER: Inhibition of human GAK cell growth in a cell viability assay.

GI-1 = assay type: functional, cell-based, Homo sapiens; conditions: Homo sapiens, GI-1
Description: SANGER: Inhibition of human GI-1 cell growth in a cell viability assay.

GR-ST = assay type: functional, cell-based, Homo sapiens; conditions: Homo sapiens, GR-ST
Description: SANGER: Inhibition of human GR-ST cell growth in a cell viability assay.

HAL-01 = assay type: functional, cell-based, Homo sapiens; conditions: Homo sapiens, HAL-01
Description: SANGER: Inhibition of human HAL-01 cell growth in a cell viability assay.

HCC1187 = assay type: functional, cell-based, Homo sapiens; conditions: Homo sapiens, HCC1187
Description: SANGER: Inhibition of human HCC1187 cell growth in a cell viability assay.

HCC2157 = assay type: functional, cell-based, Homo sapiens; conditions: Homo sapiens, HCC2157
Description: SANGER: Inhibition of human HCC2157 cell growth in a cell viability assay.

KP-N-YS = assay type: functional, cell-based, Homo sapiens; conditions: Homo sapiens, KP-N-YS
Description: SANGER: Inhibition of human KP-N-YS cell growth in a cell viability assay.

L-363 = assay type: functional, cell-based, Homo sapiens; conditions: Homo sapiens, L-363
Description: SANGER: Inhibition of human L-363 cell growth in a cell viability assay.

L-428 = assay type: functional, cell-based, Homo sapiens; conditions: Homo sapiens, L-428
Description: SANGER: Inhibition of human L-428 cell growth in a cell viability assay.

LB1047-RCC = assay type: functional, cell-based, Homo sapiens; conditions: Homo sapiens, LB1047-RCC
Description: SANGER: Inhibition of human LB1047-RCC cell growth in a cell viability assay.

LB771-HNC = assay type: functional, cell-based; conditions: Homo sapiens
Description: SANGER: Inhibition of human LB771-HNC cell growth in a cell viability assay.

LXF-289 cell line = assay type: functional, cell-based; conditions: Homo sapiens
Description: SANGER: Inhibition of human LXF-289 cell growth in a cell viability assay.

MHH-NB-11 = assay type: functional, cell-based, Homo sapiens; conditions: Homo sapiens, MHH-NB-11
Description: SANGER: Inhibition of human MHH-NB-11 cell growth in a cell viability assay.

MOLT-16 = assay type: functional, cell-based, Homo sapiens; conditions: Homo sapiens, MOLT-16
Description: SANGER: Inhibition of human MOLT-16 cell growth in a cell viability assay.

MV4-11 = assay type: functional, cell-based, Homo sapiens, MV-4-11; conditions: Homo sapiens, MV4-11
Description: SANGER: Inhibition of human MV-4-11 cell growth in a cell viability assay.

NB5 = assay type: functional, cell-based, Homo sapiens; conditions: Homo sapiens, NB5
Description: SANGER: Inhibition of human NB5 cell growth in a cell viability assay.

NB6 = assay type: functional, cell-based, Homo sapiens; conditions: Homo sapiens, NB6
Description: SANGER: Inhibition of human NB6 cell growth in a cell viability assay.

NCI-H1092 = assay type: functional, cell-based, Homo sapiens; conditions: Homo sapiens, NCI-H1092
Description: SANGER: Inhibition of human NCI-H1092 cell growth in a cell viability assay.

NCI-H1299 = assay type: functional, cell-based; conditions: Homo sapiens
Description: SANGER: Inhibition of human NCI-H1299 cell growth in a cell viability assay.

NCI-H1355 = assay type: functional, cell-based, Homo sapiens; conditions: Homo sapiens, NCI-H1355
Description: SANGER: Inhibition of human NCI-H1355 cell growth in a cell viability assay.

NCI-H226 = assay type: functional, cell-based, Homo sapiens; conditions: Homo sapiens, NCI-H226
Description: SANGER: Inhibition of human NCI-H226 cell growth in a cell viability assay.

NCI-H526 = assay type: functional, cell-based, Homo sapiens; conditions: Homo sapiens, NCI-H526
Description: SANGER: Inhibition of human NCI-H526 cell growth in a cell viability assay.

NCI-H720 = assay type: functional, cell-based, Homo sapiens; conditions: Homo sapiens, NCI-H720
Description: SANGER: Inhibition of human NCI-H720 cell growth in a cell viability assay.

NCI-N87 = assay type: functional, cell-based; conditions: Homo sapiens
Description: SANGER: Inhibition of human NCI-N87 cell growth in a cell viability assay.

NEC8 = assay type: functional, cell-based, Homo sapiens; conditions: Homo sapiens, NEC8
Description: SANGER: Inhibition of human NEC8 cell growth in a cell viability assay.

OCI-AML2 = assay type: functional, cell-based, Homo sapiens; conditions: Homo sapiens, OCI-AML2
Description: SANGER: Inhibition of human OCI-AML2 cell growth in a cell viability assay.

OCUB-M = assay type: functional, cell-based; conditions: Homo sapiens
Description: SANGER: Inhibition of human OCUB-M cell growth in a cell viability assay.

OVCAR-4 = assay type: functional, cell-based, Homo sapiens; conditions: Homo sapiens, OVCAR-4
Description: SANGER: Inhibition of human OVCAR-4 cell growth in a cell viability assay.

PSN1 = assay type: functional, cell-based, Homo sapiens; conditions: Homo sapiens, PSN1
Description: SANGER: Inhibition of human PSN1 cell growth in a cell viability assay.

QIMR-WIL = assay type: functional, cell-based, Homo sapiens; conditions: Homo sapiens, QIMR-WIL
Description: SANGER: Inhibition of human QIMR-WIL cell growth in a cell viability assay.

RH-1 = assay type: functional, cell-based, Homo sapiens; conditions: Homo sapiens, RH-1
Description: SANGER: Inhibition of human RH-1 cell growth in a cell viability assay.

RXF 393 = assay type: functional, cell-based, Homo sapiens; conditions: Homo sapiens, RXF 393
Description: SANGER: Inhibition of human RXF393 cell growth in a cell viability assay.

SCC-15 = assay type: functional, cell-based, Homo sapiens; conditions: Homo sapiens, SCC-15
Description: SANGER: Inhibition of human SCC-15 cell growth in a cell viability assay.

SCH = assay type: functional, cell-based, Homo sapiens; conditions: Homo sapiens, SCH
Description: SANGER: Inhibition of human SCH cell growth in a cell viability assay.

SJSA-1 = assay type: functional, cell-based, Homo sapiens; conditions: Homo sapiens, SJSA-1
Description: SANGER: Inhibition of human SJSA-1 cell growth in a cell viability assay.

SK-NEP-1 = assay type: functional, cell-based, Homo sapiens; conditions: Homo sapiens, SK-NEP-1
Description: SANGER: Inhibition of human SK-NEP-1 cell growth in a cell viability assay.

SK-PN-DW = assay type: functional, cell-based, Homo sapiens; conditions: Homo sapiens, SK-PN-DW
Description: SANGER: Inhibition of human SK-PN-DW cell growth in a cell viability assay.

SNB-75 = assay type: functional, cell-based, Homo sapiens; conditions: Homo sapiens, SNB-75
Description: SANGER: Inhibition of human SNB75 cell growth in a cell viability assay.

SW 962 = assay type: functional, cell-based, Homo sapiens; conditions: Homo sapiens, SW 962
Description: SANGER: Inhibition of human SW962 cell growth in a cell viability assay.

8-MG-BA = assay type: functional, cell-based, Homo sapiens; conditions: Homo sapiens, 8-MG-BA
Description: SANGER: Inhibition of human 8-MG-BA cell growth in a cell viability assay.

BV-173 = assay type: functional, cell-based, Homo sapiens; conditions: Homo sapiens, BV-173
Description: SANGER: Inhibition of human BV-173 cell growth in a cell viability assay.

TE-5 = assay type: functional, cell-based, Homo sapiens; conditions: Homo sapiens, TE-5
Description: SANGER: Inhibition of human TE-5 cell growth in a cell viability assay.

TE-9 = assay type: functional, cell-based, Homo sapiens; conditions: Homo sapiens, TE-9
Description: SANGER: Inhibition of human TE-9 cell growth in a cell viability assay.

TGBC1TKB = assay type: functional, cell-based, Homo sapiens; conditions: Homo sapiens, TGBC1TKB
Description: SANGER: Inhibition of human TGBC1TKB cell growth in a cell viability assay.

U-87 MG = assay type: functional, cell-based, Homo sapiens, U-87MG ATCC; conditions: Homo sapiens, U-87 MG
Description: SANGER: Inhibition of human U-87-MG cell growth in a cell viability assay.

no-10 = assay type: functional, cell-based, Homo sapiens; conditions: Homo sapiens
Description: SANGER: Inhibition of human no-10 cell growth in a cell viability assay.

CCRF-CEM = assay type: functional, cell-based, Homo sapiens; conditions: Homo sapiens, CCRF-CEM
Description: SANGER: Inhibition of human CCRF-CEM cell growth in a cell viability assay.

## CN(C)CCOc1ccc(-c2nc(-c3ccncc3)c(-c3ccc4c(c3)CC/C4=N\O)[nH]2)cc1 [SB590885]
D-247MG
  IC50: > 5 µM
ES5
  IC50: > 5 µM
EW-18
  IC50: > 5 µM
GAK
  IC50: > 5 µM
GI-1
  IC50: > 5 µM
GR-ST
  IC50: > 5 µM
HAL-01
  IC50: 2.93 µM
HCC1187
  IC50: > 5 µM
HCC2157
  IC50: > 5 µM
KP-N-YS
  IC50: > 5 µM
L-363
  IC50: 4.69 µM
L-428
  IC50: > 5 µM
LB1047-RCC
  IC50: > 5 µM
LB771-HNC
  IC50: > 5 µM
LXF-289 cell line
  IC50: > 5 µM
MHH-NB-11
  IC50: > 5 µM
MOLT-16
  IC50: > 5 µM
MV4-11
  IC50: > 5 µM
NB5
  IC50: > 5 µM
NB6
  IC50: > 5 µM
NCI-H1092
  IC50: > 5 µM
NCI-H1299
  IC50: > 5 µM
NCI-H1355
  IC50: > 5 µM
NCI-H226
  IC50: > 5 µM
NCI-H526
  IC50: > 5 µM
NCI-H720
  IC50: > 5 µM
NCI-N87
  IC50: > 5 µM
NEC8
  IC50: > 5 µM
OCI-AML2
  IC50: > 5 µM
OCUB-M
  IC50: > 5 µM
OVCAR-4
  IC50: > 5 µM
PSN1
  IC50: 1.87 µM
QIMR-WIL
  IC50: > 5 µM
RH-1
  IC50: > 5 µM
RXF 393
  IC50: > 5 µM
SCC-15
  IC50: > 5 µM
SCH
  IC50: > 5 µM
SJSA-1
  IC50: > 5 µM
SK-NEP-1
  IC50: > 5 µM
SK-PN-DW
  IC50: > 5 µM
SNB-75
  IC50: > 5 µM
SW 962
  IC50: > 5 µM
8-MG-BA
  IC50: > 5 µM
BV-173
  IC50: 0.771 µM
TE-5
  IC50: > 5 µM
TE-9
  IC50: > 5 µM
TGBC1TKB
  IC50: > 5 µM
U-87 MG
  IC50: > 5 µM
no-10
  IC50: > 5 µM
CCRF-CEM
  IC50: > 5 µM

## NC1(c2ccc(-c3nc4ccn5c(=O)[nH]nc5c4cc3-c3ccccc3)cc2)CCC1 [MK-2206]
D-247MG
  IC50: > 4 µM
ES5
  IC50: 0.345 µM
EW-18
  IC50: 2.42 µM
GAK
  IC50: > 4 µM
GI-1
  IC50: > 4 µM
GR-ST
  IC50: 3.05 µM
HAL-01
  IC50: 0.621 µM
HCC1187
  IC50: > 4 µM
HCC2157
  IC50: 3.38 µM
KP-N-YS
  IC50: > 4 µM
L-363
  IC50: 0.834 µM
L-428
  IC50: > 4 µM
LB1047-RCC
  IC50: 2.24 µM
LB771-HNC
  IC50: > 4 µM
LXF-289 cell line
  IC50: 1.17 µM
MHH-NB-11
  IC50: > 4 µM
MOLT-16
  IC50: 0.303 µM
MV4-11
  IC50: 2.75 µM
NB5
  IC50: > 4 µM
NB6
  IC50: > 4 µM
NCI-H1092
  IC50: > 4 µM
NCI-H1299
  IC50: > 4 µM
NCI-H1355
  IC50: > 4 µM
NCI-H226
  IC50: > 4 µM
NCI-H526
  IC50: > 4 µM
NCI-H720
  IC50: 0.377 µM
NCI-N87
  IC50: > 4 µM
NEC8
  IC50: 0.0965 µM
OCI-AML2
  IC50: > 4 µM
OCUB-M
  IC50: 0.71 µM
OVCAR-4
  IC50: > 4 µM
PSN1
  IC50: > 4 µM
QIMR-WIL
  IC50: 1.49 µM
RH-1
  IC50: > 4 µM
RXF 393
  IC50: 2.6 µM
SCC-15
  IC50: > 4 µM
SCH
  IC50: > 4 µM
SJSA-1
  IC50: > 4 µM
SK-NEP-1
  IC50: 1.14 µM
SK-PN-DW
  IC50: > 4 µM
SNB-75
  IC50: > 4 µM
SW 962
  IC50: > 4 µM
8-MG-BA
  IC50: > 4 µM
BV-173
  IC50: 1.81 µM
TE-5
  IC50: > 4 µM
TE-9
  IC50: > 4 µM
TGBC1TKB
  IC50: > 4 µM
U-87 MG
  IC50: > 4 µM
no-10
  IC50: > 4 µM
CCRF-CEM
  IC50: > 4 µM
